Data: patent US9290511B2, “Thieno-pyrimidines, useful as potassium channel inhibitors” (XENTION LIMITED, priority 2011, dated 2016)

molecular target: T1, Kir3.1/3.4 (Rattus norvegicus, UniProt P48548+P63251); test: Kir3.1/3.4 Electrophysiology Method (manual whole-cell patch clamp); format: cell-based; conditions: Electrophysiology Method (TABLE 1)
T1 construct: expressed in transfected cells
T1 sequence (P63251 1-501): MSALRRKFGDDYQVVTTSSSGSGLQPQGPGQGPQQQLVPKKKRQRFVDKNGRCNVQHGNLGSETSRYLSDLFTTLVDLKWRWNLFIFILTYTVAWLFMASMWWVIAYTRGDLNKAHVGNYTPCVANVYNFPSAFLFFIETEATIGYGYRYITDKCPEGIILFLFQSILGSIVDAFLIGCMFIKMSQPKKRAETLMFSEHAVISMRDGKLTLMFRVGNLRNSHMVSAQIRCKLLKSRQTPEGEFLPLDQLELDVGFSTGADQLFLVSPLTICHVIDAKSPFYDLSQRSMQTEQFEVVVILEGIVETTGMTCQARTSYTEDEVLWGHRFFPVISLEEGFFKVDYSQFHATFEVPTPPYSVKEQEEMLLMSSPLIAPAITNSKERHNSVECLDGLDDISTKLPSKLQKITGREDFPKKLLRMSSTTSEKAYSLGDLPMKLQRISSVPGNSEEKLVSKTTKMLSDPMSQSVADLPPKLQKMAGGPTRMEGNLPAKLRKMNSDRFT
T1 sequence (P48548 1-419): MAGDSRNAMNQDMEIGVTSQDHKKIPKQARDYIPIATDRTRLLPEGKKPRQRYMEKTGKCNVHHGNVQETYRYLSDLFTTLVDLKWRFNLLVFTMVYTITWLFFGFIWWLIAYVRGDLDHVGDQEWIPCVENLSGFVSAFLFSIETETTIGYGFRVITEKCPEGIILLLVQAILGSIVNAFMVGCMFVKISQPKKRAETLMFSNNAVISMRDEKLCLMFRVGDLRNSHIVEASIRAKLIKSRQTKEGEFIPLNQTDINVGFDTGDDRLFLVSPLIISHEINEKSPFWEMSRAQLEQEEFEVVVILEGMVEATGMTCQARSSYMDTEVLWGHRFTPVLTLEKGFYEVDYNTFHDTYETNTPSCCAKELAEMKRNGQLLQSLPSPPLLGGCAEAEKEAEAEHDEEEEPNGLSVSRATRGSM
How it was run: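 Percent inhibition is relative to the pre-drug current, both leak-subtracted using a potassium-free bather, taken as the mean current at −140 mV. The protocol was a step to +60 mV, a ramp to −140 mV, then a return to −60 mV holding, every 10 s. Cells were rat Kir3.1/3.4-transfected HEK293 recorded by whole-cell patch clamp.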

Row | Molecule | IC50 [nM]
1 | CCN1CCCC1CCN(C)CC1CCN(c2ncnc3scc(-c4ccccc4)c23)CC1 (stereo not shown) [Example 87, 2-(1-ethylpyrrolidin-2-yl)-N-methyl-N-[[1-(5-phenylthieno[2,3-d]pyrimidin-4-yl)-4-piperidyl]methyl]ethanamine] | < 500
2 | Cc1sc2ncnc(N3CCC(CNCCC4CCCCN4C)CC3)c2c1C (stereo not shown) [Example 233] | < 500
3 | CC(C)c1c(C(=O)N(C)C)sc2ncnc(N3CCC(COCCN4CCCC4)CC3)c12 [Example 133] | 500 to 3000
4 | CN1CCC(N(C)CC2CCN(c3nc(N4CC(C(N)=O)C4)nc4scc(-c5ccccc5)c34)CC2)C1 (stereo not shown) [Example 237] | < 500
5 | c1ccc(-c2csc3ncnc(N4CCC(OCCN5CCCC5)C4)c23)cc1 (stereo not shown) [Example 269] | < 500
6 | c1ccc(-c2csc3ncnc(N4C5CCC4CC(OCCN4CCCC4)C5)c23)cc1 (stereo not shown) [Example 289] | < 500
7 | COc1cccc(-c2csc3ncnc(N4CCC(COCCN5CCCC5)CC4)c23)c1 [Example 312] | < 500
8 | CC(C)(CNCC1CCN(c2ncnc3scc(-c4ccccc4)c23)CC1)N1CCOCC1 [Example 59, 2-methyl-2-morpholino-N-[[1-(5-phenylthieno[2,3-d]pyrimidin-4-yl)-4-piperidyl]methyl]propan-1-amine] | < 500
9 | NC(=O)C1CCN(c2nc(N3C4CCC3CC(NC3CCC3)C4)c3c(-c4ccccc4)csc3n2)C1 (stereo not shown) [Example 337, 1-[4-[3-(cyclobutylamino)-8-azabicyclo[3.2.1]octan-8-yl]-5-phenyl-thieno[2,3-d]pyrimidin-2-yl]pyrrolidine-3-carboxamide] | 500 to 3000
10 | CNC(=O)c1sc2ncnc(N3C4CCC3CC(COCCN3CCCC3)C4)c2c1-c1ccccc1 (stereo not shown) [Example 361] | < 500
11 | CC(C)C(=O)Nc1sc2nc(N3CCC(COCCN4CCCC4)CC3)ncc2c1-c1ccccc1 [Example 304] | < 500
12 | N#Cc1sc2ncnc(N3CCC(COCCN4CCCC4)CC3)c2c1-c1ccccc1 [Example 167, 5-phenyl-4-[4-(2-pyrrolidin-1-ylethoxymethyl)-1-piperidyl]thieno[2,3-d]pyrimidine-6-carbonitrile] | < 500
13 | COc1ccccc1-c1csc2ncnc(N3C4CCC3CC(N(C)C3CCC3)C4)c12 (stereo not shown) [Example 350] | < 500
14 | NC(=O)[C@H]1CCCN1CCOCC1C2CN(c3ncnc4scc(-c5ccc(F)cc5)c34)CC12 (stereo partly drawn) [Example 45, (2R)-1-[2-[[3-[5-(4-fluorophenyl)thieno[2,3-d]pyrimidin-4-yl]-3-azabicyclo[3.1.0]hexan-6-yl]methoxy]ethyl]pyrrolidine-2-carboxamide] | < 500
15 | c1ccc(-c2csc3nc(C4CC4)nc(N4CCC(COCCN5CCCC5)CC4)c23)cc1 [Example 360] | < 500
16 | CN(C)c1nc(N2CCC(COCCN3CCCC3)CC2)nc2scc(-c3ccccc3)c12 [Example 275] | < 500
17 | CCc1c(C)sc2ncnc(N3CCC(COCCN4CCOCC4)CC3)c12 [Example 23, 4-[2-[[1-(5-ethyl-6-methyl-thieno[2,3-d]pyrimidin-4-yl)-4-piperidyl]methoxy]ethyl]morpholine] | < 500
18 | COc1ncccc1-c1csc2ncnc(N3C4CCC3CC(NC3CCC3)C4)c12 (stereo not shown) [Example 345] | < 500
19 | O=C(CNCC1CCN(c2ncnc3scc(-c4ccccc4)c23)CC1)N1CCCC1 [Example 105] | < 500
20 | CN1CCCCC1CCOCC1CCN(c2ncnc3scc(-c4cccc(F)c4)c23)CC1 (stereo not shown) [Example 36, 5-(3-fluorophenyl)-4-[4-[2-(1-methyl-2-piperidyl)ethoxymethyl]-1-piperidyl]thieno[2,3-d]pyrimidine] | < 500
21 | O=C1CCCN1c1sc2ncnc(N3CCC(COCCN4CCCC4)CC3)c2c1-c1ccccc1 [Example 163] | < 500
22 | CC1CCN(CC2CC(c3ccccc3)N(c3ncnc4scc(-c5ccccc5)c34)C2)C1 (stereo not shown) [Example 198] | < 500
23 | NC1CCCN(CC2CCN(c3ncnc4scc(-c5ccccc5)c34)CC2)C1 (stereo not shown) [Example 211] | < 500
24 | NC(=O)[C@H]1CCCN1CCOC1CC2CC1CN2c1ncnc2scc(-c3ccccc3)c12 (stereo partly shown) [Example 293] | < 500
25 | COc1ccccc1-c1csc2ncnc(N3C4CCC3CC(CNC3CCC3)C4)c12 (stereo not shown) [Example 367] | < 500

Row | Molecule | IC50 [nM]
26 | COc1ncccc1-c1csc2ncnc(N3C4CCC3CC(COCCN3CCCC3)C4)c12 (stereo not shown) [Example 363] | < 500
27 | CN(CC1CCN(c2ncnc3scc(-c4ccccc4)c23)CC1)CC1CCCN1 (stereo not shown) [Example 83, N-methyl-1-[1-(5-phenylthieno[2,3-d]pyrimidin-4-yl)-4-piperidyl]-N-(pyrrolidin-2-ylmethyl)methanamine] | < 500
28 | c1ccc(-c2csc3ncnc(N4CCC(CN5CCC5)CC4)c23)cc1 [Example 73, 4-[4-(azetidin-1-ylmethyl)-1-piperidyl]-5-phenyl-thieno[2,3-d]pyrimidine] | 500 to 3000
29 | CN1CCCC1CCNCC1CCN(c2ncnc3scc(-c4ccccc4)c23)CC1 (stereo not shown) [Example 58, 2-(1-methylpyrrolidin-2-yl)-N—[[1-(5-phenylthieno[2,3-d]pyrimidin-4-yl)-4-piperidyl]methyl]ethanamine] | < 500
30 | Fc1ccc(-c2csc3nc(Cl)nc(N4CCC(COCCN5CCCC5)CC4)c23)cc1 [Example 279] | < 500
31 | CC(C)c1csc2nc(N3CCC(C(N)=O)C3)nc(N3CCC(CN(C)C4CCN(C)C4)CC3)c12 (stereo not shown) [Example 245] | < 500
32 | COCCNc1nc(N2CCC(CN3CCCC(N(C)C)C3)CC2)c2c(-c3ccccc3)csc2n1 (stereo not shown) [Example 124] | < 500
33 | CC1CCN(CC2CCN(c3ncnc4scc(-c5ccccc5)c34)CC2)C1 (stereo not shown) [Example 50, 4-[4-[(3-methylpyrrolidin-1-yl)methyl]-1-piperidyl]-5-phenyl-thieno[2,3-d]pyrimidine] | 500 to 3000
34 | CN(C)C1CCN(CC2CCN(c3ncnc4scc(-c5ccccc5)c34)CC2)CC1 [Example 75, N,N-dimethyl-1-[[1-(5-phenylthieno[2,3-d]pyrimidin-4-yl)-4-piperidyl]methyl]piperidin-4-amine] | < 500
35 | OCC1CCCN1CC1CCN(c2ncnc3scc(-c4ccccc4)c23)CC1 (stereo not shown) [Example 65, [1-[[1-(5-phenylthieno[2,3-d]pyrimidin-4-yl)-4-piperidyl]methyl]pyrrolidin-2-yl]methanol] | < 500
36 | COCC1CCN(c2nc(N(C)C3CCN(C)C3)nc3scc(-c4ccccc4)c23)CC1 (stereo not shown) [Example 193] | < 500
37 | CN1CCC(N(C)CC2CCN(c3nc(N4CCCC4C(N)=O)nc4scc(-c5ccccc5)c34)CC2)C1 (stereo not shown) [Example 130] | 500 to 3000
38 | CC(=O)NC1CCN(CC2CCN(c3ncnc4scc(-c5ccccc5)c34)CC2)C1 (stereo not shown) [Example 253] | < 500
39 | CCc1c(C)sc2ncnc(N3CCC(COCCC4CCCN4C)CC3)c12 (stereo not shown) [Example 24, 5-ethyl-6-methyl-4-[4-[2-(1-methylpyrrolidin-2-yl)ethoxymethyl]-1-piperidyl]thieno[2,3-d]pyrimidine] | < 500
40 | CC(C)N1CCCC1CCN(C)CC1CCN(c2ncnc3scc(-c4ccccc4)c23)CC1 (stereo not shown) [Example 88, 2-(1-isopropylpyrrolidin-2-yl)-N-methyl-N-[[1-(5-phenylthieno[2,3-d]pyrimidin-4-yl)-4-piperidyl]methyl]ethanamine] | < 500
41 | 8-azabicyclo[3.2.1]octan-3-amine [Example 325] | < 500
42 | c1ccc(-c2csc3ncnc(N4C5CCC4CC(CN4CCCC4)C5)c23)cc1 (stereo not shown) [Example 335] | < 500
43 | c1ccc(-c2csc3ncnc(N4CCC(CNC5CC5)CC4)c23)cc1 [Example 74, N-[[1-(5-phenylthieno[2,3-d]pyrimidin-4-yl)-4-piperidyl]methyl]cyclopropanamine] | < 500
44 | Brc1sc2nccc(N3CCC(COCCN4CCCC4)CC3)c2c1-c1ccccc1 [Example 143] | < 500
45 | c1nc(N2CCC(COCCN3CCCC3)CC2)c2c(-c3ccc4c(c3)OCO4)csc2n1 [Example 319] | < 500
46 | CN1CCC(N(C)CC2CCN(c3ncnc4scc(-c5ccccc5)c34)C2)C1 (stereo not shown) [Example 205] | < 500
47 | c1ccc(-c2csc3ncnc(N4CC[C@@H](COCCN5CCCC5)C4)c23)cc1 [Example 262] | < 500
48 | CN1CCCCC1CCNCC1CCN(c2ncnc3scc(-c4ccccc4)c23)CC1 (stereo not shown) [Example 80, 2-(1-methyl-2-piperidyl)-N-[[1-(5-phenylthieno[2,3-d]pyrimidin-4-yl)-4-piperidyl]methyl]ethanamine] | < 500
49 | NC(=O)[C@@H]1CCN(CCN2CCN(c3ncc4c(-c5ccccc5)csc4n3)CC2)C1 [Example 150] | 500 to 3000
